The target of test [1] is T1, AKAP1 A-kinase anchor protein 1, mitochondrial (Homo sapiens, UniProt Q92667).
T1 construct: Cells were resuspended in cold PBS on ice and sonicated with a probe sonicator to achieve lysis; endogenous in cells
T1 sequence (Q92667 30-903): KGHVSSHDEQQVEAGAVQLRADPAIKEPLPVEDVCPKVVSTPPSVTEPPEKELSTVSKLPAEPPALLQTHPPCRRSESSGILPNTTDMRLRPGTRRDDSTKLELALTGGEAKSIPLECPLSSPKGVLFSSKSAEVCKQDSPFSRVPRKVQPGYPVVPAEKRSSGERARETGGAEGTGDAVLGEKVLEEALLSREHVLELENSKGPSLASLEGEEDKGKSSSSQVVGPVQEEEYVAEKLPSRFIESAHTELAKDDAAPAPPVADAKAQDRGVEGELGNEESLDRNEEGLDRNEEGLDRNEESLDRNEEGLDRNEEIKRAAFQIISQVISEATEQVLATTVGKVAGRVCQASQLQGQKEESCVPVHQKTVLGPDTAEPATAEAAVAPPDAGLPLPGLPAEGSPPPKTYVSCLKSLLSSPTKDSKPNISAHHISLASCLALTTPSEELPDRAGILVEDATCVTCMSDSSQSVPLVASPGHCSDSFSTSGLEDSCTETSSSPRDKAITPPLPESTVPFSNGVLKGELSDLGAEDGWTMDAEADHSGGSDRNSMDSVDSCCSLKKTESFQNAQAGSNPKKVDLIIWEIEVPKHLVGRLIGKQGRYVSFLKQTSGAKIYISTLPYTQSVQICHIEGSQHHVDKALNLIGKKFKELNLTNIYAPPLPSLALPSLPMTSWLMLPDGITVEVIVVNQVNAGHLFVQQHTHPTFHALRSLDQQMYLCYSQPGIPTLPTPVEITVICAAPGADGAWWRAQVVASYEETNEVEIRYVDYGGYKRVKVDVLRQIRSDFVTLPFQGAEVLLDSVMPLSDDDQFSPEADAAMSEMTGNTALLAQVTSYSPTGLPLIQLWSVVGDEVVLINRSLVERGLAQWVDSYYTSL
The test can be described thus: Cysteine liganding, probe competition. The format is binding. Summed up: (§1)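 Lysates from probe-sonicated cells in PBS (5 mg/ml proteome) were exposed to compound for 1 hr at 25° C, then labelled with desthiobiotin iodoacetamide probe (10 mM stock) for 1 hr at 25° C. Probe-tagged peptides were streptavidin-enriched after trypsin digestion.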

Test [2] addresses T2, RPUSD3 RNA pseudouridylate synthase domain-containing pro (Homo sapiens, UniProt Q6P087).
T2 construct: Cells were resuspended in cold PBS on ice and sonicated with a probe sonicator to achieve lysis; endogenous in cells
T2 sequence (Q6P087 26-351): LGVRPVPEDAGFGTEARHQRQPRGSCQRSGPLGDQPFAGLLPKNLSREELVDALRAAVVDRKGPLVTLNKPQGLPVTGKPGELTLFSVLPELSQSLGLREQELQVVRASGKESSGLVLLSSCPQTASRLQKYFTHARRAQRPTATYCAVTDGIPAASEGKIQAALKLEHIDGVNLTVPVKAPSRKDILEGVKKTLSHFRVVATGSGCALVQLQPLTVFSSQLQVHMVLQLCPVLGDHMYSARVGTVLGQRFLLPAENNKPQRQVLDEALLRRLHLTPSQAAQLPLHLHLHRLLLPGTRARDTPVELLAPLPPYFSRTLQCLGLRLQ
The test can be described thus: Cysteine liganding, probe competition. It counts as binding. The gist of the method: as §1

`O=C(CCl)Nc1cc(C(F)(F)F)cc(C(F)(F)F)c1` [KBO3]: in test [1] (uniprot Q92667), the 100 ave is −0.33, the “500 Max” value is listed as 57.81 and the 500 ave was 45.04. In test [1] (uniprot Q92667, in % (unit assumed)), the “100 Max” value is given as 18.92. Besides, in test [2] (uniprot Q6P087), the “100 Max” value came to 14.63, the 100 ave turned out to be 9.07, the “500 Max” value came out at 49.47 and the 500 ave is reported as 49.47.

For the compound `COc1ccc2c(c1)CCCN2C(=O)CCl` [KB02], the Liganded result in test [1] (AKAP1 Res# 376, uniprot Q92667) is “YES”; in test [2] (RPUSD3 Res# 147, uniprot Q6P087) it was “YES”.

The values above are taken from patent publication US20200239530A1, “COMPOUNDS AND METHODS OF MODULATING PROTEIN DEGRADATION” (Vividion Therapeutics, Inc., priority 2017, published 2020).
